The values that follow come from patent US12606528B2, “Methods and materials for inhibiting NF-kB activity” (University of Pittsburgh - Of the Commonwealth System of …, priority 2019, dated 2026).

One may read the IC50 as the concentration that inhibits the measured activity by half.

In one test the test system is NF-κB. In words: NF-κB assay: THP1-NF-κB-LUC cells, LPS-stimulated secreted luciferase. In kind it is cell-based. Particulars: THP1-NF-κB-LUC cells, read-out: IC50 (NF-κB assay). The procedure, abridged:
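THP1-NF-κB-LUC cells (25k/well) were pretreated with compounds for 2 h, then stimulated with LPS (10 ng/mL) for 18 h. Secreted luciferase was measured and normalized to vehicle, and IC50 was fitted from the concentration series.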

Another test concerns TNF release. As to the kind of experiment: TNF assay: TNF release from LPS-stimulated human PBMCs (TNF ELISA). Particulars: PBMC, read-out: IC50 (TNF assay). It counts as cell-based. The method, boiled down:
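Human PBMCs at 10k/well pretreated with compound dilutions 2 h, then stimulated with LPS (10 ng/mL) for 18 h. TNF in supernatants quantified by ELISA; IC50 for inhibition of TNF release fitted from concentration–response.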

Setting [1] is: LPS-stimulated human PBMCs, TNF ELISA.
[2] abbreviates: compounds 2 hours before LPS (10 ng/mL) for 18 hours, secreted luciferase.
Setting [3] is: human PBMCs, compounds 2 hours before LPS (10 ng/ml) for 18 hours, supernatant TNF ELISA.

Each structure is given as a SMILES string. Read-outs that look alike come from different tables or passages of the source.

With `COc1ccc(NS(=O)(=O)c2cc3c(cc2Br)NC(=O)CCO3)cc1Cl` [BC19694], the IC50 in the test on NF-κB (LPS-stimulated) and in the test on TNF release (setting [1]) was above 10000 nM in each case.
Consider `N#Cc1ccc(NS(=O)(=O)c2cc3c(cc2Br)NC(=O)CCO3)cc1` [BC19695], for which the IC50 was above 10000 nM in the test with NF-κB (LPS-stimulated) and 1000 to 10000 nM with TNF release (setting [1]).
With `CC1Oc2cc(S(=O)(=O)Nc3ccc(Cl)cc3)c(Cl)cc2NC1=O` (stereo not shown) [BC19696], the figures for the IC50 in the test on NF-κB (setting [2]) and with TNF release (setting [3]) were 100 to 1000 nM and above 10000 nM, respectively.
Regarding `CC1Oc2c(cc(Cl)cc2S(=O)(=O)Nc2ccc(Cl)cc2)NC1=O` (stereo not shown) [BC19697], the values for the IC50 with NF-κB (setting [2]) and in the test with TNF release (setting [3]) were below 100 nM and above 10000 nM, respectively.
For `CC1Oc2cc(S(=O)(=O)Nc3ccc(F)c(F)c3)c(Cl)cc2NC1=O` (stereo not shown) [BC19698], the IC50 in the test with NF-κB (setting [2]) was below 100 nM; with TNF release (setting [3]), above 10000 nM.
As to `CC1Oc2c(cc(Cl)cc2S(=O)(=O)Nc2ccc(F)c(F)c2)NC1=O` (stereo not shown) [BC19699], the IC50 in the test on NF-κB (setting [2]) is below 100 nM; with TNF release (setting [3]), above 10000 nM.
For `Cc1ccc(NS(=O)(=O)c2cc3c(cc2Cl)NC(=O)C(C)O3)cc1F` (stereo not shown) [BC19700], in that order: below 100 nM and above 10000 nM.
For `Cc1ccc(NS(=O)(=O)c2cc(Cl)cc3c2OC(C)C(=O)N3)cc1F` (stereo not shown) [BC19701], the values for the 50% inhibitory concentration (IC50) in the test with NF-κB (setting [2]) and with TNF release (setting [3]) were below 100 nM and above 10000 nM, respectively.
For the molecule `CCc1ccc(NS(=O)(=O)c2cc3c(cc2Cl)NC(=O)C(C)O3)cc1` (stereo not shown) [BC19702], the results for the IC50 in the test on NF-κB (setting [2]) and in the test on TNF release (setting [3]) were below 100 nM and above 10000 nM, respectively.
Regarding `CCc1ccc(NS(=O)(=O)c2cc(Cl)cc3c2OC(C)C(=O)N3)cc1` (stereo not shown) [BC19703], the figures for the IC50 in the test on NF-κB (setting [2]) and with TNF release (setting [3]) were below 100 nM and above 10000 nM, respectively.
For the molecule `CC1Oc2c(cc(Cl)cc2S(=O)(=O)Nc2ccc(C(C)C)cc2)NC1=O` (stereo not shown) [BC19705], the figures for the concentration for half-maximal inhibition (IC50) in the test with NF-κB (setting [2]) and in the test on TNF release (setting [3]) were below 100 nM and above 10000 nM, respectively.
As for `COc1ccc(NS(=O)(=O)c2cc3c(cc2Cl)NC(=O)C(C)O3)cc1` (stereo not shown) [BC19706], the IC50 in the test on NF-κB (setting [2]) was below 100 nM; in the test on TNF release (setting [3]) it was above 10000 nM.
Consider `COc1ccc(NS(=O)(=O)c2cc(Cl)cc3c2OC(C)C(=O)N3)cc1` (stereo not shown) [BC19707], for which the IC50 with NF-κB (setting [2]) is below 100 nM; in the test on TNF release (setting [3]), above 10000 nM.
`Cc1ccc(NS(=O)(=O)c2cc3c(cc2Cl)NC(=O)C(C)O3)cc1Cl` (stereo not shown) [BC19708]: the IC50 was below 100 nM with NF-κB (setting [2]) and above 10000 nM in the test on TNF release (setting [3]).
On to `CC1Oc2cc(S(=O)(=O)Nc3ccc(F)cc3F)c(Cl)cc2NC1=O` (stereo not shown) [BC19709], for which the IC50 in the test on NF-κB (setting [2]) is below 100 nM; with TNF release (setting [3]), above 10000 nM.
As to `CC1Oc2c(cc(Cl)cc2S(=O)(=O)Nc2ccc(F)cc2F)NC1=O` (stereo not shown) [BC19710], the results for the IC50 in the test on NF-κB (setting [2]) and in the test on TNF release (setting [3]) were below 100 nM and above 10000 nM, respectively.
In the same order, the values of `CCc1cccc(NS(=O)(=O)c2cc3c(cc2Cl)NC(=O)C(C)O3)c1` (stereo not shown) [BC19711] are below 100 nM and above 10000 nM.
As to `CCc1cccc(NS(=O)(=O)c2cc(Cl)cc3c2OC(C)C(=O)N3)c1` (stereo not shown) [BC19712], the IC50 was below 100 nM with NF-κB (setting [2]) and above 10000 nM in the test on TNF release (setting [3]).
As for `CC1Oc2cc(S(=O)(=O)Nc3cccc(F)c3)c(Cl)cc2NC1=O` (stereo not shown) [BC19713], the IC50 in the test with NF-κB (setting [2]) lay within 100 to 1000 nM; in the test with TNF release (setting [3]), 1000 to 10000 nM.
Regarding `CC1Oc2c(cc(Cl)cc2S(=O)(=O)Nc2cccc(F)c2)NC1=O` (stereo not shown) [BC19714], the IC50 in the test on NF-κB (setting [2]) is below 100 nM; in the test on TNF release (setting [3]), 1000 to 10000 nM.
For the molecule `CC1Oc2cc(S(=O)(=O)Nc3cccc(Cl)c3)c(Cl)cc2NC1=O` (stereo not shown) [BC19715], the IC50 in the test on NF-κB (setting [2]) is below 100 nM; in the test on TNF release (setting [3]), 1000 to 10000 nM.
Turning to `CC1Oc2c(cc(Cl)cc2S(=O)(=O)Nc2cccc(Cl)c2)NC1=O` (stereo not shown) [BC19716], the half-inhibitory concentration (IC50) in the test with NF-κB (setting [2]) is below 100 nM; in the test with TNF release (setting [3]), 1000 to 10000 nM.
On to `Cc1ccc(NS(=O)(=O)c2cc3c(cc2Cl)NC(=O)C(C)O3)cc1` (stereo not shown) [BC19717], for which the IC50 in the test with NF-κB (setting [2]) is below 100 nM; in the test on TNF release (setting [3]) it was above 10000 nM.
For the molecule `Cc1ccc(NS(=O)(=O)c2cc(Cl)cc3c2OC(C)C(=O)N3)cc1` (stereo not shown) [BC19718], the IC50 in the test on NF-κB (setting [2]) was below 100 nM; in the test on TNF release (setting [3]), 1000 to 10000 nM.
On to `CC1Oc2cc(S(=O)(=O)Nc3ccc(F)cc3Cl)c(Cl)cc2NC1=O` (stereo not shown) [BC19719], for which the IC50 was 100 to 1000 nM in the test with NF-κB (setting [2]) and above 10000 nM in the test on TNF release (setting [3]).
For the molecule `CC1Oc2c(cc(Cl)cc2S(=O)(=O)Nc2ccc(F)cc2Cl)NC1=O` (stereo not shown) [BC19720], the IC50 with NF-κB (setting [2]) was below 100 nM; in the test with TNF release (setting [3]) it was above 10000 nM.
For the molecule `CC1Oc2cc(S(=O)(=O)Nc3ccc(F)cc3)c(Cl)cc2NC1=O` (stereo not shown) [BC19721], the half-maximal inhibitory concentration (IC50) in the test with NF-κB (setting [2]) is below 100 nM; in the test with TNF release (setting [3]) it was 1000 to 10000 nM.
Turning to `CC1Oc2c(cc(Cl)cc2S(=O)(=O)Nc2ccc(F)cc2)NC1=O` (stereo not shown) [BC19722], the figures for the IC50 with NF-κB (setting [2]) and with TNF release (setting [3]) were below 100 nM and 1000 to 10000 nM, respectively.
As to `CN1CCN(C(=O)C2Cc3nc(-c4ccc(F)cc4)c(-c4ccc(F)cc4)nc3C2)CC1` [BC19723], the IC50 is 100 to 1000 nM in the test with NF-κB (LPS-stimulated) and above 10000 nM in the test with TNF release (setting [1]).
